The results in this text go back to US9834550B2, “Pyridopyrimidinone compounds for modulating the catalytic activity of histone lysine demethylases (KDMs)” (Dong-A Socio Holdings Co., Ltd., priority 2014, dated 2017).

Molecules are shown by their SMILES. A value given as a limit tells only on which side of the number the result lay.

Assay [1] has as its target T1, Recombinant human JARID1B/KDM5B (Homo sapiens, UniProt Q9UGL1).
T1 construct: purchased Active Motif 31432; host or cells: Sf9 insect cells
Briefly: LANCE Ultra TR-FRET demethylase assay with FLAG-tagged JARID1B. The class given is biochemical. The following applies: 100 nM compound; 500 nM biotinylated H3K4me3 peptide substrate. The procedure, abridged:
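Sf9-expressed N-FLAG full-length JARID1B (10–30 nM) preincubated 5 min with compound at 20, 1 or 0.1 uM (1% DMSO), then 500 nM biotin-H3K4me3 peptide, 500 uM 2-OG, 25 uM Fe(II), 2 mM ascorbate added; 30 min at room temperature in Hepes pH 7.5. H3K4me2/1 product read by TR-FRET 665/590 ratio.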

Assay [2] concerns MDA-MB-231 cell migration. Briefly: Wound healing assay. Conditions: 24 h treatment; compared to DMSO; FIG. 1. The class given is cell-based. The protocol: Breast cancer cells (MDA-MD-231) were seeded into 12-well plates (2500 cells/well), at bottom of which culture-inserts were implemented. The cells were cultured to subconfluence in RPMI1640 medium supplemented with 0.5% FBS and 100 μg/ml penicillin/streptomycin, and then starved in serum-free media for one day at 37° C. and 5% CO2. The inserts were removed to generate two cell patches separated each other by 0.9 mm of ‘wound fields’. Cultures were then treated with test compounds for 24 h. The results of wound healing assays at indicated time were photographed under microscopy with ×40 magnification after generating the wound fields. […] Similar results were obtained in three independent samples. The cancer cells were stained with 0.1% crystal violet at 24-hours time points.

T1 sequence (Q9UGL1 whole entry): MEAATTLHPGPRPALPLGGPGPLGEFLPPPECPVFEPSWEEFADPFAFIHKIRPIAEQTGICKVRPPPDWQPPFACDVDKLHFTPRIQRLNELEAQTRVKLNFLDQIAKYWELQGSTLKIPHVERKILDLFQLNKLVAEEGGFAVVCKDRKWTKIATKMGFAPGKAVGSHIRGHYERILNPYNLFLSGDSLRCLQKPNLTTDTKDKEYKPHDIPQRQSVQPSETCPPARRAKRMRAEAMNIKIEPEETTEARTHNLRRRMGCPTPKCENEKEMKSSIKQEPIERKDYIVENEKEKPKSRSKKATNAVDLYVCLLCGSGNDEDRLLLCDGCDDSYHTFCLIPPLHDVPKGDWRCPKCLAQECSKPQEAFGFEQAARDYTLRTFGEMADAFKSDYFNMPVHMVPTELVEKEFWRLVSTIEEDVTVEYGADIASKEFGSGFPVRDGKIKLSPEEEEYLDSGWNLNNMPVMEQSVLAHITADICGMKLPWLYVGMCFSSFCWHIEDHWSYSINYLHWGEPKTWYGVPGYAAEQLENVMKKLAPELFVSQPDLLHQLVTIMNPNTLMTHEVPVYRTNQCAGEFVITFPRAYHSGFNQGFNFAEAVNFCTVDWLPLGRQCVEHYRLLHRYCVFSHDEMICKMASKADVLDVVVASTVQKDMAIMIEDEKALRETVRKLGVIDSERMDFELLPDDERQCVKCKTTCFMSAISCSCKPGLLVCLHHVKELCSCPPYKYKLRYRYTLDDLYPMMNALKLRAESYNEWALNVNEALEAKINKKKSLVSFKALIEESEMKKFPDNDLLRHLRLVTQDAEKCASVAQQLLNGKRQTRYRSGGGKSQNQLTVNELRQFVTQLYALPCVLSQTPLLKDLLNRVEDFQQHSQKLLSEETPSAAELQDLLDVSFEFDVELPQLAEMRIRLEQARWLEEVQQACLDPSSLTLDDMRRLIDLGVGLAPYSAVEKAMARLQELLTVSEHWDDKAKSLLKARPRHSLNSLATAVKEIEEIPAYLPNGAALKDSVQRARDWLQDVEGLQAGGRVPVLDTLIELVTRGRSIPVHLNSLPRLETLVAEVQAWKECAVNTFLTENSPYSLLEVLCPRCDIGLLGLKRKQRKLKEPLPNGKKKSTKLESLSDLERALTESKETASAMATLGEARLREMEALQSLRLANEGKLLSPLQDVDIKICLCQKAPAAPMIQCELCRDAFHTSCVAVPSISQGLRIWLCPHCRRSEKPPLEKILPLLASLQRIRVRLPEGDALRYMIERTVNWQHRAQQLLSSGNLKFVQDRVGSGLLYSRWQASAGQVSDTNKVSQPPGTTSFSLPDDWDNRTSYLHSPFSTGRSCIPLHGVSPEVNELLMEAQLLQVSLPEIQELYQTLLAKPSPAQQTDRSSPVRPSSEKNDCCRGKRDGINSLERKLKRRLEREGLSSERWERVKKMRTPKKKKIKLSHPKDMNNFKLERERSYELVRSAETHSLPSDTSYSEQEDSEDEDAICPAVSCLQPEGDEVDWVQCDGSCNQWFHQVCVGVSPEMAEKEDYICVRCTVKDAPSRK

Turning to `CCN(CC)CCCC(C)NCc1nccc2c(=O)[nH]cnc12` (stereo not drawn) [Example 87, 8-(((5-(diethylamino)pentan-2-yl)amino)methyl)pyrido[3,4-d]pyrimidin-4(3H)-one], the inhibition (in general, how much of the control response was suppressed) at 0.1 µM in assay [1] is less than 20%. Besides, the “MDA-MB-231 cell migration (wound healing)” value in assay [2] was “inactive”. Regarding `C[C@@H](Oc1ccc(Cc2ccccc2)cc1)c1nc2c(CNCC3CCN(C)CC3)nccc2c(=O)[nH]1` [Example 216, (R)-2-(1-(4-benzylphenoxy)ethyl)-8-((((1-methylpiperidin-4-yl)methyl)amino)methyl)pyrido[3,4-d]pyrimidin-4(3H)-one], the inhibition at 0.1 µM in assay [1] is more than 50%. On the same count and under the same terms, the same measure for `C[C@@H](Oc1ccc(F)c(Cl)c1)c1nc2c(CNCC3CCNCC3)nccc2c(=O)[nH]1` [Example 217, (R)-2-(1-(3-chloro-4-fluorophenoxy)ethyl)-8-(((piperidin-4-ylmethyl)amino)methyl)pyrido[3,4-d]pyrimidin-4(3H)-one]: less than 20%; for `C[C@@H](Oc1ccc(F)c(Cl)c1)c1nc2c(CNCC3CCN(C)CC3)nccc2c(=O)[nH]1` [Example 218, (R)-2-(1-(3-chloro-4-fluorophenoxy)ethyl)-8-((((1-methylpiperidin-4-yl)methyl)amino)methyl)pyrido[3,4-d]pyrimidin-4(3H)-one]: 20 to 50%; for `C[C@H](Oc1ccc(F)c(Cl)c1)c1nc2c(CNCC3CCNCC3)nccc2c(=O)[nH]1` [Example 219, (S)-2-(1-(3-chloro-4-fluorophenoxy)ethyl)-8-(((piperidin-4-ylmethyl)amino)methyl)pyrido[3,4-d]pyrimidin-4(3H)-one]: 20 to 50%. As for `C[C@H](Oc1ccc(F)c(Cl)c1)c1nc2c(CNCC3CCN(C)CC3)nccc2c(=O)[nH]1` [Example 220, (S)-2-(1-(3-chloro-4-fluorophenoxy)ethyl)-8-((((1-methylpiperidin-4-yl)methyl)amino)methyl)pyrido[3,4-d]pyrimidin-4(3H)-one], the inhibition at 0.1 µM in assay [1] is more than 50%. With `CCN(CCN(C)C)C(=O)CNCc1nccc2c(=O)[nH]c(COc3ccc(F)c(Cl)c3)nc12` [Example 221, 2-(((2-((3-chloro-4-fluorophenoxy)methyl)-4-oxo-3,4-dihydropyrido[3,4-d]pyrimidin-8-yl)methyl)amino)-N-(2-(dimethylamino)ethyl)-N-ethylacetamide], the inhibition at 0.1 µM in assay [1] is more than 50%.

As for `CCCCN(CC)C(=O)CNCc1nccc2c(=O)[nH]c(COc3ccc(F)c(Cl)c3)nc12` [Example 222, N-butyl-2-(((2-((3-chloro-4-fluorophenoxy)methyl)-4-oxo-3,4-dihydropyrido[3,4-d]pyrimidin-8-yl)methyl)amino)-N-ethylacetamide], the inhibition at 0.1 µM in assay [1] fell in the range of 20 to 50%. In the case of `O=C(CNCc1nccc2c(=O)[nH]c(COc3ccc(F)c(Cl)c3)nc12)N1CCCC1` [Example 223, 2-((3-chloro-4-fluorophenoxy)methyl)-8-(((2-oxo-2-(pyrrolidin-1-yl)ethyl)amino)methyl)pyrido[3,4-d]pyrimidin-4(3H)-one], the inhibition at 0.1 µM in assay [1] lay within 20 to 50%. For `O=C(CNCc1nccc2c(=O)[nH]c(COc3ccc(F)c(Cl)c3)nc12)N1CCCCC1` [Example 224, 2-((3-chloro-4-fluorophenoxy)methyl)-8-(((2-oxo-2-(piperidin-1-yl)ethyl)amino)methyl)pyrido[3,4-d]pyrimidin-4(3H)-one], the inhibition at 0.1 µM in assay [1] is 20 to 50%. On the same count and under the same terms, the same measure for `O=C(CNCc1nccc2c(=O)[nH]c(COc3ccc(F)c(Cl)c3)nc12)N1CCOCC1` [Example 225, 2-((3-chloro-4-fluorophenoxy)methyl)-8-(((2-morpholino-2-oxoethyl)amino)methyl)pyrido[3,4-d]pyrimidin-4(3H)-one]: 20 to 50%; for `CN1CCN(C(=O)CNCc2nccc3c(=O)[nH]c(COc4ccc(F)c(Cl)c4)nc23)CC1` [Example 226, 2-((3-chloro-4-fluorophenoxy)methyl)-8-(((2-(4-methylpiperazin-1-yl)-2-oxoethyl)amino)methyl)pyrido[3,4-d]pyrimidin-4(3H)-one]: more than 50%; for `CN1CCC(CNC(=O)CNCc2nccc3c(=O)[nH]c(COc4ccc(F)c(Cl)c4)nc23)C1` (stereo not drawn) [Example 227, 2-(((2-((3-chloro-4-fluorophenoxy)methyl)-4-oxo-3,4-dihydropyrido[3,4-d]pyrimidin-8-yl)methyl)amino)-N-((1-methylpyrrolidin-3-yl)methyl)acetamide]: 20 to 50%. With `N[C@@H]1CCN(C(=O)CNCc2nccc3c(=O)[nH]c(COc4ccc(F)c(Cl)c4)nc23)C1` [Example 228, (R)-8-(((2-(3-aminopyrrolidin-1-yl)-2-oxoethyl)amino)methyl)-2-((3-chloro-4-fluorophenoxy)methyl)pyrido[3,4-d]pyrimidin-4(3H)-one], the inhibition at 0.1 µM in assay [1] is more than 50%. On to `N[C@H]1CCN(C(=O)CNCc2nccc3c(=O)[nH]c(COc4ccc(F)c(Cl)c4)nc23)C1` [Example 229, (S)-8-(((2-(3-aminopyrrolidin-1-yl)-2-oxoethyl)amino)methyl)-2-((3-chloro-4-fluorophenoxy)methyl)pyrido[3,4-d]pyrimidin-4(3H)-one], for which the inhibition at 0.1 µM in assay [1] was more than 50%. Regarding `O=C(CNCc1nccc2c(=O)[nH]c(COc3ccc(F)c(Cl)c3)nc12)N[C@@H]1CCCNC1` [Example 230, (R)-2-(((2-((3-chloro-4-fluorophenoxy)methyl)-4-oxo-3,4-dihydropyrido[3,4-d]pyrimidin-8-yl)methyl)amino)-N-(piperidin-3-yl)acetamide], the inhibition at 0.1 µM in assay [1] was more than 50%. Same read-out and setting: the same measure for `O=C(CNCc1nccc2c(=O)[nH]c(COc3ccc(F)c(Cl)c3)nc12)N[C@H]1CCCNC1` [Example 231, (S)-2-(((2-((3-chloro-4-fluorophenoxy)methyl)-4-oxo-3,4-dihydropyrido[3,4-d]pyrimidin-8-yl)methyl)amino)-N-(piperidin-3-yl)acetamide]: more than 50%; for `O=C(CNCc1nccc2c(=O)[nH]c(COc3ccc(F)c(Cl)c3)nc12)NC1CCN(Cc2ccccc2)C1` (stereo not drawn) [Example 232, N-(1-benzylpyrrolidin-3-yl)-2-(((2-((3-chloro-4-fluorophenoxy)methyl)-4-oxo-3,4-dihydropyrido[3,4-d]pyrimidin-8-yl)methyl)amino)acetamide]: more than 50%; for `O=C(CNCc1nccc2c(=O)[nH]c(COc3ccc(F)c(Cl)c3)nc12)N1CCC(N2CCCC2)CC1` [Example 234, 2-((3-chloro-4-fluorophenoxy)methyl)-8-(((2-oxo-2-(4-(pyrrolidin-1-yl)piperidin-1-yl)ethyl)amino)methyl)pyrido[3,4-d]pyrimidin-4(3H)-one]: more than 50%.

In the case of `O=C(CNCc1nccc2c(=O)[nH]c(COc3ccc(F)c(Cl)c3)nc12)N1CCC(N2CCOCC2)C1` (stereo not drawn) [Example 235, 2-((3-chloro-4-fluorophenoxy)methyl)-8-(((2-(3-morpholinopyrrolidin-1-yl)-2-oxoethyl)amino)methyl)pyrido[3,4-d]pyrimidin-4(3H)-one], the inhibition at 0.1 µM in assay [1] is 20 to 50%. Take `CCN(CC)C1CCN(C(=O)CNCc2nccc3c(=O)[nH]c(COc4ccc(F)c(Cl)c4)nc23)C1` (stereo not drawn) [Example 236, 2-((3-chloro-4-fluorophenoxy)methyl)-8-(((2-(3-(diethylamino)pyrrolidin-1-yl)-2-oxoethyl)amino)methyl)pyrido[3,4-d]pyrimidin-4(3H)-one]: in assay [1], the inhibition at 0.1 µM is more than 50%. The same measure, in the same setting: the same measure for `CN(C)C1CCN(C(=O)CNCc2nccc3c(=O)[nH]c(COc4ccc(F)c(Cl)c4)nc23)C1` (stereo not drawn) [Example 237, 2-((3-chloro-4-fluorophenoxy)methyl)-8-(((2-(3-(dimethylamino)pyrrolidin-1-yl)-2-oxoethyl)amino)methyl)pyrido[3,4-d]pyrimidin-4(3H)-one]: more than 50%; for `CNC1CCN(C(=O)CNCc2nccc3c(=O)[nH]c(COc4ccc(F)c(Cl)c4)nc23)C1` (stereo not drawn) [Example 238, 2-((3-chloro-4-fluorophenoxy)methyl)-8-(((2-(3-(methylamino)pyrrolidin-1-yl)-2-oxoethyl)amino)methyl)pyrido[3,4-d]pyrimidin-4(3H)-one]: more than 50%; for `O=C(CNCc1nccc2c(=O)[nH]c(COc3ccc(F)c(Cl)c3)nc12)N[C@@H]1CCNC1` [Example 239, (R)-2-(((2-((3-chloro-4-fluorophenoxy)methyl)-4-oxo-3,4-dihydropyrido[3,4-d]pyrimidin-8-yl)methyl)amino)-N-(pyrrolidin-3-yl)acetamide]: more than 50%. `O=C(CC1CCNCC1)NCc1nccc2c(=O)[nH]c(COc3ccc(F)c(Cl)c3)nc12` [Example 240, N-((2-((3-chloro-4-fluorophenoxy)methyl)-4-oxo-3,4-dihydropyrido[3,4-d]pyrimidin-8-yl)methyl)-2-(piperidin-4-yl)acetamide]: in assay [1], the inhibition at 0.1 µM is less than 20%. On to `O=C(NCc1nccc2c(=O)[nH]c(COc3ccc(F)c(Cl)c3)nc12)C1CCCNC1` (stereo not drawn) [Example 241, N-((2-((3-chloro-4-fluorophenoxy)methyl)-4-oxo-3,4-dihydropyrido[3,4-d]pyrimidin-8-yl)methyl)piperidine-3-carboxamide], for which the inhibition at 0.1 µM in assay [1] is less than 20%.
